# Values of other authors as cited in patent publication US11951100B2, “Formulations of RBP4 inhibitors and methods of use” (Belite Bio, LLC, priority 2019, dated 2024).
# Conditions: sub-population with significant RBP4 lowering; cited from earlier work
smiles,measurement,value
CC1=C(/C=C/C(C)=C/C=C/C(C)=C/C(=O)Nc2ccc(O)cc2)C(C)(C)CCC1 [fenretinide],lesion growth,slower lesion growth
